Assay results reported in patent US20230339886A1 (University of Florida Research Foundation, Incorporated, priority 2020, published 2023).
Like-named read-outs stand apart in the source and are kept apart here.

Biological target: T1, REV-ERBα LBD (human; residues 281-614 Δ324-422) (Homo sapiens, UniProt P20393, DEL324-422)
T1 construct: 6×Histag-REV-ERBα LBD (human; residues 281-614 Δ324-422); made in house; host or cells: Escherichia coli
Assay: TR-FRET corepressor interaction assay (REV-ERBα LBD, FITC-SMRT peptide)
Type: biochemical
Method in brief: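 Compound serial dilutions (in DMSO, triplicate) incubated 2 h at 4 °C; Tb donor excited at 340 nm, emission read at 495 nm and FITC acceptor at 520 nm. TR-FRET ratio (520/495 nm) plotted against ligand concentration and fitted to a sigmoidal dose-response curve.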

[1] = FITC-SMRT peptide, read-out: REVERBα agonism (EC50 class, FRET assay)
[2] = Table 2, read-out: REVERBα agonism (EC50 class, FRET assay)

T1 sequence (P20393 with tags, fused parts or gaps DEL324-422): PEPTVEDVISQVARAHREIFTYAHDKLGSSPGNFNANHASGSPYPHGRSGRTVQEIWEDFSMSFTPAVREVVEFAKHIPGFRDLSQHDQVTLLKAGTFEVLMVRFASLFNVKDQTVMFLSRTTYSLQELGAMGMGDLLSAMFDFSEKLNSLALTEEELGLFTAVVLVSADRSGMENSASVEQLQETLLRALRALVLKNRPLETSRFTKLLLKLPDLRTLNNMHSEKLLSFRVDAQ
T1 sequence (Q9Y618 2335-2356 partner limits assumed): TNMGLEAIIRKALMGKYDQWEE

With `CC(C)(C)Cn1cc([C@H](NS(=O)(=O)C2CC2)C(F)(F)F)c2ccc(-c3ccc(F)cc3C#N)cc21` [Example 472, (S)—N-(1-(6-(2-cyano-4-fluorophenyl)-1-neopentyl-1H-indol-3-yl)-2,2,2-trifluoroethyl)cyclopropanesulfonamide] the EC50 [1] was under 500 nM.
Compound `CC(C)Cn1cc(CCNS(=O)(=O)N(C)C)c2ccc(C3CCC3)cc21` [Example 108, ({2-[6-cyclobutyl-1-(2-methylpropyl)-1H-indol-3-yl]ethyl}sulfamoyl)dimethylamine] has an EC50 [2] of under 500 nM.
For `CCC(NS(=O)(=O)C1CCC1)c1cn(CC(C)(C)C)c2cc(-c3ccccc3C(F)(F)F)ccc12` (stereo not drawn) [Example 425, N-(1-(1-neopentyl-6-(2-(trifluoromethyl)phenyl)-1H-indol-3-yl)propyl)cyclobutanesulfonamide], the EC50 [1] was under 500 nM.
For `CN(C)S(=O)(=O)NCCc1cn(Cc2ccccc2)c2cc(-c3ccncc3)ccc12` [Compound 8], the EC50 [2] was under 500 nM.
With `COc1cc(-c2ccc3c(CCNS(=O)(=O)N(C)C)cn(CC(C)C)c3c2)ccn1` [Compound 19] the EC50 [2] was 500 to 3000 nM.
Work on `CN(C)S(=O)(=O)NCc1cn(C(=O)C(C)(C)C)c2cc(-c3ccncc3)ccc12` [Example 186, 1-(3-{[(dimethylsulfamoyl)amino]methyl}-6-(pyridin-4-yl)-1H-indol-1-yl)-2,2-dimethylpropan-1-one] yielded an EC50 [2] of 500 to 3000 nM.
`CNS(=O)(=O)N[C@@H](c1cn(CC(C)(C)C)c2cc(-c3ccccc3C(F)(F)F)c(F)cc12)C(F)(F)F` [Example 371] showed an EC50 [2] of 500 to 3000 nM.
Work on `CC(NS(=O)(=O)C1CC1)c1cn(CC(C)(C)C)c2cc(-c3ccccc3C(F)(F)F)ccc12` (stereo not drawn) [Example 420, N-(1-(1-neopentyl-6-(2-(trifluoromethyl)phenyl)-1H-indol-3-yl)ethyl)-cyclopropanesulfonamide] yielded an EC50 [2] of under 500 nM.
Work on `CC(C)(C)Cn1cc([C@H](NS(=O)(=O)C2(C)CC2)C(F)(F)F)c2cc(F)c(-c3ccccc3C(F)(F)F)cc21` [Example 375, (S)-1-methyl-N-(2,2,2-trifluoro-1-(5-fluoro-1-neopentyl-6-(2-(trifluoromethyl)phenyl)-1H-indol-3-yl)ethyl)cyclopropane-1-sulfonamide] yielded an EC50 [2] of under 500 nM.
In the case of `CC(C)Cn1cc(CCNS(=O)(=O)N(C)C)c2cc(F)c(Br)cc21` [Example 168, ({2-[6-bromo-5-fluoro-1-(2-methylpropyl)-1H-indol-3-yl]ethyl}sulfamoyl)dimethylamine], the EC50 [2] is reported as under 500 nM.
In the case of `CC(C)(C)Cn1cc(C(NS(=O)(=O)C2CCC2)C2CC2)c2ccc(-c3ccccc3C(F)(F)F)cc21` (stereo not drawn) [Example 424, N-(cyclopropyl(1-neopentyl-6-(2-(trifluoromethyl)phenyl)-1H-indol-3-yl)methyl)cyclobutanesulfonamide], the EC50 [1] is reported as under 500 nM.
In the case of `CC(C)Cn1cc([C@H](NS(=O)(=O)C2CC2)C(F)(F)F)c2ccc(-c3ccccc3C(F)(F)F)cc21` [Example 410, (S)—N-(2,2,2-trifluoro-1-(1-isobutyl-6-(2-(trifluoromethyl)phenyl)-1H-indol-3-yl)ethyl)cyclopropanesulfonamide], the EC50 [2] is reported as under 500 nM.
With `CC(C)Cn1cc(CCN(C)S(=O)(=O)N(C)C)c2ccc(Br)cc21` [Compound 123, ({2-[6-bromo-1-(2-methylpropyl)-1H-indol-3-yl]ethyl}(methyl)sulfamoyl)dimethylamine] the EC50 [2] was 500 to 3000 nM.
Compound `Cc1ccc2c([C@H](NS(=O)(=O)C3CCC3)C(F)(F)F)cn(CC(C)(C)C)c2c1` [Example 500, (S)—N-(2,2,2-trifluoro-1-(6-methyl-1-neopentyl-1H-indol-3-yl)ethyl)cyclobutanesulfonamide] has an EC50 [1] of under 500 nM.
For `CC(C)Cn1cc(CC(C)NS(=O)(=O)C(C)C)c2ccc(-c3ccncc3)cc21` (stereo not drawn) [Compound 275], the EC50 [2] was 500 to 3000 nM.
In the case of `CCCn1cc([C@H](NS(=O)(=O)C2CCC2)C(F)(F)F)c2ccc(-c3ccccc3C(F)(F)F)cc21` [Example 438, (S)—N-(2,2,2-trifluoro-1-(1-propyl-6-(2-(trifluoromethyl)phenyl)-1H-indol-3-yl)ethyl)cyclobutanesulfonamide], the EC50 [1] is reported as under 500 nM.
With `CC(C)Cn1cc(CCNS(=O)(=O)N(C)C)c2ccc(-c3cccc(S(C)(=O)=O)c3)cc21` [Example 60, N-{2-[6-(3-methylsulfonylphenyl)-1-(2-methylpropyl)-1H-indol-3-yl]ethyl}-N,N-dimethylsulfuric diamide] the EC50 [2] was 500 to 3000 nM.
`CC(C)(C)Cn1cc([C@H](NS(=O)(=O)C2CCC2)C(F)(F)F)c2ccc(-c3ccccc3C(F)(F)F)cc21` [Example 494, (S)—N-(2,2,2-trifluoro-1-(1-neopentyl-6-(2-(trifluoromethyl)phenyl)-1H-indol-3-yl)ethyl)cyclobutanesulfonamide] gave an EC50 [1] of under 500 nM.
In the case of `CN(C)S(=O)(=O)N[C@@H](c1cn(CC(C)(C)C)c2cc(-c3ccccc3Cl)ccc12)C(F)(F)F` [Example 338, {[(1S)-1-[6-(2-chlorophenyl)-1-(2,2-dimethylpropyl)-1H-indol-3-yl]-2,2,2-trifluoroethyl]sulfamoyl}dimethylamine], the EC50 [2] is reported as under 500 nM.
Work on `CN(C)S(=O)(=O)NCCc1cn(CC2CC2)c2cc(-c3ccncc3)ccc12` [Compound 7] yielded an EC50 [2] of under 500 nM.
`O=S(=O)(NCCc1cn(CC2CCCC2)c2cc(-c3ccncc3Cl)ccc12)C1CC1` [Compound 281] gave an EC50 [2] of under 500 nM.
Work on `CN(C)S(=O)(=O)NCCc1cn(CC2CCOC2)c2cc(-c3ccncc3)ccc12` (stereo not drawn) [Compound 9] yielded an EC50 [2] of 500 to 3000 nM.
Work on `CC(C)(C)Cn1cc([C@H](NS(=O)(=O)C2CC2)C(F)(F)F)c2ccc(-c3cccc(C#N)c3F)cc21` [Example 473, (S)—N-(1-(6-(3-cyano-2-fluorophenyl)-1-neopentyl-1H-indol-3-yl)-2,2,2-trifluoroethyl)cyclopropanesulfonamide] yielded an EC50 [1] of 500 to 3000 nM.
`CC(C)Cn1cc([C@H](NS(=O)(=O)C2CC2)C(F)(F)F)c2cc(F)c(-c3cscn3)cc21` [Example 457, N-[(1S)-2,2,2-trifluoro-1-(5-fluoro-1-isobutyl-6-thiazol-4-yl-indol-3-yl)ethyl]cyclopropanesulfonamide] gave an EC50 [1] of 500 to 3000 nM.
With `CC(C)(C)Cn1cc([C@H](NS(=O)(=O)C2CC2(F)F)C(F)(F)F)c2ccc(-c3ccccc3C(F)(F)F)cc21` (stereo partly drawn) [Example 515, 2,2-difluoro-N—((S)-2,2,2-trifluoro-1-(1-neopentyl-6-(2-(trifluoromethyl)phenyl)-1H-indol-3-yl)ethyl)cyclopropane-1-sulfonamide] the EC50 [1] was 500 to 3000 nM.
`CN(C)S(=O)(=O)NCCc1cn(CCc2ccccc2)c2cc(-c3ccncc3)ccc12` [Example 154, N′-{2-[6-(pyridin-4-yl)-1-phenethyl-1H-indol-3-yl]ethyl}-N,N-dimethylsulfuric diamide] gave an EC50 [2] of 500 to 3000 nM.
In the case of `CC(C)c1cc2c(cc1F)c([C@H](NS(=O)(=O)C1CC1)C(F)(F)F)cn2CC(C)(C)C` [Example 336, (S)—N-(2,2,2-trifluoro-1-(5-fluoro-6-isopropyl-1-neopentyl-1H-indol-3-yl)ethyl)cyclopropanesulfonamide], the EC50 [2] is reported as 500 to 3000 nM.
For `[2H]C([2H])(n1cc([C@H](NS(=O)(=O)C2CC2)C(F)(F)F)c2ccc(-c3ccccc3C(F)(F)F)cc21)C(C)(C)C` [Example 564, (S)—N-(1-(1-(2,2-dimethylpropyl-1,1-d2)-6-(2-(trifluoromethyl)phenyl)-1H-indol-3-yl)-2,2,2-trifluoroethyl)cyclopropanesulfonamide], the EC50 [1] was under 500 nM.
`CC(C)Cn1cc(CCNS(=O)(=O)N(C)C)c2ccc(-c3ccncc3C(F)(F)F)cc21` [Compound 206, dimethyl({2-[1-(2-methylpropyl)-6-[3-(trifluoromethyl)pyridin-4-yl]-1H-indol-3-yl]ethyl}sulfamoyl)amine] was tested, and the EC50 [2] was under 500 nM.
For `CC(C)Cn1cc(CCCNS(=O)(=O)N(C)C)c2ccc(-c3ccncc3)cc21` [Compound 235], the EC50 [2] was over 3000 nM.
In the case of `CC(C)(C)Cn1cc([C@H](NS(=O)(=O)C2CCC2)C(F)(F)F)c2ccc(C3CCCC3)nc21` [Example 427, (S)—N-(1-(6-cyclopentyl-1-neopentyl-1H-pyrrolo[2,3-b]pyridin-3-yl)-2,2,2-trifluoroethyl)cyclobutanesulfonamide], the EC50 [1] is reported as under 500 nM.
`CC(C)(C)Cn1cc([C@H](NS(=O)(=O)C2CC2)C(F)F)c2cc(F)c(-c3ccccc3C(F)(F)F)nc21` [Example 546, (S)—N-(2,2-difluoro-1-(5-fluoro-1-neopentyl-6-(2-(trifluoromethyl)phenyl)-1H-pyrrolo[2,3-b]pyridin-3-yl)ethyl)cyclopropanesulfonamide] showed an EC50 [1] of under 500 nM.
Work on `CC(C)(C)Cn1cc([C@H](NS(=O)(=O)C2CC2)C(F)(F)F)c2ccc(-c3c(F)cccc3C(F)(F)F)cc21` [Example 373, (S)—N-(2,2,2-trifluoro-1-(6-(2-fluoro-6-(trifluoromethyl)phenyl)-1-neopentyl-1H-indol-3-yl)ethyl)cyclopropanesulfonamide] yielded an EC50 [2] of under 500 nM.
With `CC(C)(C)Cn1cc([C@H](NS(=O)(=O)C2CC2)C(F)(F)F)c2ccc(-c3c(C#N)cccc3C(F)(F)F)cc21` [Example 389, (S)—N-(1-(6-(2-cyano-6-(trifluoromethyl)phenyl)-1-neopentyl-1H-indol-3-yl)-2,2,2-trifluoroethyl)cyclopropanesulfonamide] the EC50 [2] was under 500 nM.
`CC(C)(O)Cn1cc([C@H](NS(=O)(=O)C2CCC2)C(F)(F)F)c2ccc(-c3ccccc3C(F)(F)F)nc21` (racemic) [Example 412, N-[rac-(1S)-2,2,2-trifluoro-1-[1-(2-hydroxy-2-methyl-propyl)-6-[2-(trifluoromethyl)phenyl]pyrrolo[2,3-b]pyridin-3-yl]ethyl]cyclobutanesulfonamide] gave an EC50 [2] of 500 to 3000 nM.
`CC(C)(C)Cn1cc([C@H](NS(=O)(=O)C2CC2)C(F)(F)F)c2cc(F)c(-c3ccccc3C(F)(F)F)cc21` [Example 319, (S)—N-(2,2,2-trifluoro-1-(5-fluoro-1-neopentyl-6-(2-(trifluoromethyl)phenyl)-1H-indol-3-yl)ethyl)cyclopropanesulfonamide] gave an EC50 [2] of under 500 nM.
